Assay results published in US20240100146A1 (priority 2022, published 2024).

System: MHV1
Design: species or system A/J mice
Conditions: mouse, in vivo

SMILES: CC(=O)N[C@H]1[C@H]([C@H](O)[C@H](O)CO)OC(C(=O)O)=C[C@@H]1N=C(N)N [zanamivir]
- % protection (survival) against lethal MHV1 challenge: 0%
